Data on eight compounds can be found in patent US20250154169A1, “COMPOUNDS AND METHODS FOR MODULATING SPLICING” (REMIX THERAPEUTICS INC., priority 2021, published 2025).

Molecules are shown by their SMILES. Some results are limits rather than exact numbers.

For orientation: IC50 means the concentration needed to halve the response being measured. Broadly, the AC50 is the concentration at which the activity in the assay is half-maximal.

The subject of experiment [1] is HTT mRNA. The experiment is described as follows: Splicing RT-qPCR assay, HTT canonical (CJ) and alternative (AJ) junction mRNA. It counts as cell-based, human. The settings on record: Homo sapiens, A673 or K562 cells, 24 hours compound treatment; for IC50: 24 h, read-out: HTT CJ (IC50, decrease in canonical junction mRNA); for AC50: read-out: HTT AJ (AC50, increase in alternative junction mRNA). In outline:
(§1)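 One-step RT-qPCR on cell lysates, CJ and AJ isoforms quantified; housekeeping normalization GAPDH/GUSB (K562) or PPIA (A673). Cells: A673 in DMEM/10% FBS or K562 in IMDM/10% FBS. Compounds 11-pt 3-fold, top 10 uM, 24 h, 37 °C, 5% CO2.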
For orientation: In qPCR the cycle at which signal appears reflects the starting amount.

The test system of experiment [2] is MYB mRNA. The experiment is described as follows: Splicing RT-qPCR assay, MYB canonical (CJ) and alternative (AJ) junction mRNA. In kind it is cell-based, human. The settings on record: Homo sapiens, 24 h, A673 or K562 cells, 24 hours compound treatment, RT-qPCR; for AC50: read-out: MYB AJ (AC50, increase in alternative junction mRNA); for IC50: read-out: MYB CJ (IC50, decrease in canonical junction mRNA). In outline: as §1

In the case of `CCn1cc2c(N3CC[C@](C)(NC)C3)ccc(C(=O)Nc3cc(F)c4nc(C)cn4c3)c2n1` [Compound 548, 2-ethyl-N-{8-fluoro-2-methylimidazo [1,2-a]pyridin-6-yl}-4-[(3S)-3-methyl-3-(methylamino)pyrrolidin-1-yl]indazole-7-carboxamide], the IC50 in experiment [1] and in experiment [2] was > 10000 nM throughout. Besides, the AC50 in experiment [1] and in experiment [2] was > 10000 nM throughout.
With `CCn1cc2c(N(C)C3C[C@H]4CC[C@@H](C3)N4)ccc(C(=O)Nc3cc(F)c4nc(C)cn4c3)c2n1` (stereo partly drawn) [Compound 550, 4-[(1R,5S)-8-azabicyclo[3.2.1]octan-3-yl(methyl)amino]-2-ethyl-N-{8-fluoro-2-methylimidazo[1,2-a]pyridin-6-yl}indazole-7-carboxamide], in experiment [1], the IC50 was > 10000 nM and the AC50 was > 10000 nM. In experiment [2], the AC50 was in the range of 1000 to 10000 nM and the IC50 was in the range of 1000 to 10000 nM.
For `Cc1cn2cc(NC(=O)c3ccc(N4CC[C@@H](N5CCOCC5)C4)c4cn(C)nc34)cc(F)c2n1` [Compound 552, N-{8-fluoro-2-methylimidazo[1,2-a]pyridin-6-yl}-2-methyl-4-[(3R)-3-(morpholin-4-yl)pyrrolidin-1-yl]indazole-7-carboxamide], in experiment [1], the IC50 was in the range of 100 to 1000 nM and the AC50 is 100 to 1000 nM. Further, in experiment [2], the AC50 was in the range of 100 to 1000 nM and the IC50 was in the range of 100 to 1000 nM.
With `C=CCN[C@@H]1CCN(c2ccc(C(=O)Nc3cc(F)c4nc(C)cn4c3)c3nn(C)cc23)C1` [Compound 554, N-{8-fluoro-2-methylimidazo[1,2-a]pyridin-6-yl}-2-methyl-4-[(3R)-3-(prop-2-en-1-ylamino)pyrrolidin-1-yl]indazole-7-carboxamide], in experiment [1], the IC50 is > 10000 nM and the AC50 was > 10000 nM. In experiment [2], the AC50 is < 100 nM and the IC50 was 100 to 1000 nM.
As for `CCn1cc2c(N3CCC(NCC4(O)CC4)CC3)ccc(C(=O)Nc3cc(F)c4nc(C)cn4c3)c2n1` [Compound 576, 2-ethyl-N-{8-fluoro-2-methylimidazo[1,2-a]pyridin-6-yl}-4-(4-{[(1-hydroxycyclopropyl)methyl]amino}piperidin-1-yl) indazole-7-carboxamide], in experiment [1], the IC50 fell in the range of 1000 to 10000 nM and the AC50 is > 10000 nM. In experiment [2], the AC50 fell in the range of 100 to 1000 nM and the IC50 lay within 100 to 1000 nM.
On to `CCn1cc2c(N3CCC(NCC(C)(C)O)CC3)ccc(C(=O)Nc3cc(F)c4nc(C)cn4c3)c2n1` [Compound 577, 2-ethyl-N-{8-fluoro-2-methylimidazo[1,2-a]pyridin-6-yl}-4-{4-[(2-hydroxy-2-methylpropyl)amino]piperidin-1-yl}indazole-7-carboxamide], for which, in experiment [1], the IC50 lay within 100 to 1000 nM and the AC50 lay within 100 to 1000 nM. In addition, in experiment [2], the AC50 lay within 100 to 1000 nM and the IC50 lay within 100 to 1000 nM.
As for `Cc1cn2cc(NC(=O)c3ccc(N4CC[C@@H](Nc5ccccc5)C4)c4cn(C)nc34)cc(F)c2n1` [Compound 579, N-{8-fluoro-2-methylimidazo[1,2-a]pyridin-6-yl}-2-methyl-4-[(3R)-3-(phenylamino)pyrrolidin-1-yl] indazole-7-carboxamide], the IC50 in experiment [1] and in experiment [2] was > 10000 nM throughout. The AC50 in experiment [1] and in experiment [2] was > 10000 nM in each case.
On to `CCn1cc2c(N3CCC(NC4C5CNCC54)CC3)ccc(C(=O)Nc3cc(F)c4nc(C)cn4c3)c2n1` (centres unmarked) [Compound 580, 4-(4-{3-azabicyclo[3.1.0]hexan-6-ylamino}piperidin-1-yl)-2-ethyl-N-{8-fluoro-2-methylimidazo[1,2-a]pyridin-6-yl}indazole-7-carboxamide; bis(trifluoroacetic acid)], for which, in experiment [1], the IC50 was > 10000 nM and the AC50 was > 10000 nM. In experiment [2], the AC50 was in the range of 1000 to 10000 nM and the IC50 fell in the range of 100 to 1000 nM.
